Test results taken from patent US12508246B2, “Uses of complex of angiotensin II receptor antagonist metabolite and NEP inhibitor in treating heart failure” (SHENZHEN SALUBRIS PHARMACEUTICALS CO. LTD, priority 2019, dated 2025).
Several values for one entry are separate records, joined by “and”; a condition that tells them apart may be missing. Equal entries are not always repeated. Marks after values point to notes of the source that are not given here.

Legend:
[1] = system: dogs with heart failure (preserved ejection fraction); assay: Pharmacodynamic study in the canine chronic heart failure model-preserved ejection fraction (LAD ligation, echocardiography); format: in vivo; conditions: HFpEF dog model; 100 mpk (mix: EXP3174 52 mpk + sacubitril 48 mpk) p.o. qd, from 3 d after modeling for 2 weeks; Mean ± SD; model 51.80, sham 68.15
Procedure: 5.1 Methods: After the animals arrived at the facility, they were on adaptive feeding, and randomized after echocardiography and ECG, and then the experiment was started. On the day of operation, animals were anesthetized by intramuscular injection of Zoletil (5 mg/kg). The tracheae of the anesthetized dogs were connected to the ventilator, and then they were fixed in a supine position; their chests were opened between the third and fourth ribs, the left anterior descending coronary artery was ligated to close the thoracic cavity, and then the skin was sutured. After the animals recovered for 3 days after operation, they were given therapeutic drugs by gavage, once a day for two consecutive weeks. During the experiment, the animals' living conditions were observed every day, and their abnormal conditions were recorded. After 14 days of dosing, echocardiography was performed.
(§1) 5.2 Modeling: On the day before operation, the animals were fasted overnight. On the day of operation, the animals were intramuscularly injected with Zoletil (dose: 5 mg/kg) to induce anesthesia, and also were intramuscularly administered with atropine sulfate injection (dose: 0.5 mg/dog). After the animals were anesthetized, their hair on the left chest was shaved clean. […]

[2] = system: dogs with heart failure (reduced ejection fraction); assay: Pharmacodynamic study in the canine chronic heart failure model-reduced ejection fraction (LAD ligation, echocardiography); format: in vivo; conditions: HFrEF dog model; 100 mpk (mix: EXP3174 52 mpk + sacubitril 48 mpk) p.o. qd, from 3 d after modeling for 6 weeks; Mean ± SD; model 35.82, sham 66.20
Procedure: 4.1 Methods: After the animals arrived at the facility, they were on adaptive feeding, and randomized after echocardiography and ECG, and then the experiment was started. On the day of operation, animals were anesthetized by intramuscular injection of Zoletil (5 mg/kg). The trachea of the anesthetized dogs were connected to the ventilator, and then they were fixed in a supine position, their chest was opened between the third and fourth ribs, the left anterior descending coronary artery was ligated to close the thoracic cavity, and then the skin was sutured. After the animals recovered for 3 days after operation, they were given therapeutic drugs by gavage, once a day for […] consecutive weeks. During the experiment, animal's living conditions were observed every day, and their abnormal conditions were recorded. After 42 days of dosing, echocardiography was performed.
as §1, with “4.2” for “5.2”

Row | Substance | endpoint left ventricular ejection fraction LVEF (%) [1] | endpoint left ventricular ejection fraction LVEF (%) [2]
1 | (EXP3174·AHU377)^3−·1.5 Ca^2+·2H2O [Complex of the invention] | 58.04 ± 1.29***^@ % | 51.87 ± 1.01***^@$ %
2 | Valsartan-Sacubitril sodium salt complex [LCZ696] | 57.98% and 57.98 ± 2.64 % | 46.45% and 46.45 ± 3.39 %
